# Measured values as given in the supplement of paper PMC10307832.
# Compound: Cc1ccccc1C(C(=O)NC1CCCCC1)N(C(=O)Cn1ccnc1C)c1cccc(F)c1 [IDH-C35] + Cc1nc(Nc2ncc(C(=O)Nc3c(C)cccc3Cl)s2)cc(N2CCN(CCO)CC2)n1 [Dasatinib] (partner 0.075 µM)
# Assay: relative viability (nuclei count vs DMSO), 5 days (fraction); higher = more cells survive
# Settings: first compound 0.08 µM
# Procedure, shortened: (§1)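 One day after seeding in 1536-well plates, lung cancer cell lines were dosed by pin tool. Dosing was either single-drug or a fixed anchor-drug dose plus five library-drug doses (not always all listed) in √10 steps. After 5 days, nuclei were stained in one fix-and-stain step and counted on 4× images, and relative viability is the nuclei count of treated wells over that of vehicle wells, given as the median of duplicate plates.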
row,Cell Line,relative viability
1,NCI-H522,0.977
2,NCI-H1623,0.475
3,NCI-H727,0.514
4,NCI-H1650,0.328
5,NCI-H1993,0.654
6,SW 1573,0.571
7,NCI-H838,0.343
8,LCLC-103H,0.485
9,NCI-H520,0.191
10,NCI-H2126,0.6
11,EMC-BAC-2,0.355
12,NCI-H2085,0.275
13,HCC-366,0.763
14,NCI-H1666,0.784
15,NCI-H596,0.588
16,LK-2,0.243
17,NCI-H2087,0.944
18,NCI-H2342,0.308
19,SK-MES-1,0.433
20,NCI-H2170,0.542
21,SW 900,0.534
22,NCI-H1395,0.416
23,NCI-H1792,0.725
24,NCI-H1793,0.409
25,NCI-H1563,0.455
26,NCI-H1944,0.233
27,ABC-1,0.583
28,NCI-H358,0.205

# Same assay, conditions: first compound 0.253 µM
row,Cell Line,relative viability
1,NCI-H522,0.976
2,NCI-H1623,0.504
3,NCI-H727,0.315
4,NCI-H1650,0.35
5,NCI-H1993,0.53
6,SW 1573,0.545
7,NCI-H838,0.303
8,LCLC-103H,0.441
9,NCI-H520,0.159
10,NCI-H2126,0.651
11,EMC-BAC-2,0.346
12,NCI-H2085,0.261
13,HCC-366,0.67
14,NCI-H1666,0.807
15,NCI-H596,0.759
16,LK-2,0.295
17,NCI-H2087,0.995
18,NCI-H2342,0.381
19,SK-MES-1,0.353
20,NCI-H2170,0.594
21,SW 900,0.764
22,NCI-H1395,0.376
23,NCI-H1792,0.728
24,NCI-H1793,0.423
25,NCI-H1563,0.472
26,NCI-H1944,0.228
27,ABC-1,0.58
28,NCI-H358,0.159

# Same assay, conditions: first compound 0.8 µM
row,Cell Line,relative viability
1,NCI-H522,0.858
2,NCI-H1623,0.534
3,NCI-H727,0.366
4,NCI-H1650,0.328
5,NCI-H1993,0.577
6,SW 1573,0.545
7,NCI-H838,0.298
8,LCLC-103H,0.45
9,NCI-H520,0.202
10,NCI-H2126,0.596
11,EMC-BAC-2,0.348
12,NCI-H2085,0.223
13,HCC-366,0.669
14,NCI-H1666,0.794
15,NCI-H596,0.693
16,LK-2,0.27
17,NCI-H2087,0.9
18,NCI-H2342,0.32
19,SK-MES-1,0.424
20,NCI-H2170,0.594
21,SW 900,0.478
22,NCI-H1395,0.4
23,NCI-H1792,0.473
24,NCI-H1793,0.364
25,NCI-H1563,0.446
26,NCI-H1944,0.211
27,ABC-1,0.485
28,NCI-H358,0.141

# Same assay, conditions: first compound 2.53 µM
row,Cell Line,relative viability
1,NCI-H522,1.01
2,NCI-H1623,0.535
3,NCI-H727,0.388
4,NCI-H1650,0.269
5,NCI-H1993,0.559
6,SW 1573,0.549
7,NCI-H838,0.32
8,LCLC-103H,0.423
9,NCI-H520,0.181
10,NCI-H2126,0.605
11,EMC-BAC-2,0.298
12,NCI-H2085,0.277
13,NCI-H1666,0.795
14,LK-2,0.299
15,NCI-H2342,0.374
16,SK-MES-1,0.355
17,NCI-H2170,0.678
18,SW 900,0.578
19,NCI-H1395,0.41
20,NCI-H1792,0.944
21,NCI-H1563,0.487
22,NCI-H1944,0.228
23,ABC-1,0.476
24,NCI-H358,0.193

# Same assay, conditions: first compound 8 µM
row,Cell Line,relative viability
1,NCI-H522,0.905
2,NCI-H1623,0.474
3,NCI-H727,0.446
4,NCI-H1650,0.304
5,NCI-H1993,0.621
6,SW 1573,0.38
7,NCI-H838,0.303
8,LCLC-103H,0.514
9,NCI-H520,0.217
10,NCI-H2126,0.588
11,EMC-BAC-2,0.281
12,NCI-H2085,0.266
13,HCC-366,0.596
14,NCI-H1666,0.728
15,NCI-H596,0.56
16,LK-2,0.335
17,NCI-H2087,0.814
18,NCI-H2342,0.299
19,SK-MES-1,0.336
20,NCI-H2170,0.538
21,SW 900,0.552
22,NCI-H1395,0.381
23,NCI-H1792,0.815
24,NCI-H1793,0.414
25,NCI-H1563,0.465
26,NCI-H1944,0.211
27,ABC-1,0.631
28,NCI-H358,0.169

# Compound: CC1=C(C(=NN1)C)CC2=C(C3=C(S2)N(C(=O)N(C3=O)C)CC(C)C)C(=O)N4C[C@@H](CO4)O + Nc1nc2[nH]cc(CCc3ccc(C(=O)N[C@@H](CCC(=O)O)C(=O)O)cc3)c2c(=O)[nH]1 [Pemetrexed] (partner 0.2 µM)
# Assay: as above
# Settings: first compound 0.0025 µM
# Procedure, shortened: as §1
row,Cell Line,relative viability
1,NCI-H522,1.14
2,NCI-H1650,0.321
3,NCI-H1993,0.651
4,SW 1573,0.759
5,NCI-H838,0.261
6,LCLC-103H,0.437
7,NCI-H520,0.731
8,NCI-H2126,0.766
9,EMC-BAC-2,0.46
10,NCI-H2085,0.926
11,HCC-366,0.178
12,NCI-H1666,0.886
13,NCI-H596,0.481
14,LK-2,0.307
15,NCI-H2087,0.575
16,NCI-H2342,0.748
17,SK-MES-1,1.08
18,NCI-H2170,0.261
19,HCC-44,0.633
20,SW 900,0.489
21,NCI-H1648,0.69
22,NCI-H1395,0.925
23,NCI-H1792,0.932
24,NCI-H1793,0.973
25,NCI-H1563,0.796
26,NCI-H1944,0.614
27,NCI-H358,0.172

# Same assay, conditions: first compound 0.007906 µM
row,Cell Line,relative viability
1,NCI-H522,1.37
2,NCI-H1650,0.406
3,NCI-H1993,0.623
4,SW 1573,1.05
5,NCI-H838,0.229
6,LCLC-103H,0.474
7,NCI-H520,0.711
8,NCI-H2126,0.737
9,EMC-BAC-2,0.468
10,NCI-H2085,0.93
11,HCC-366,0.191
12,NCI-H1666,0.925
13,NCI-H596,0.544
14,LK-2,0.347
15,NCI-H2087,0.675
16,NCI-H2342,0.859
17,SK-MES-1,0.988
18,NCI-H2170,0.274
19,HCC-44,0.643
20,SW 900,0.456
21,NCI-H1648,0.783
22,NCI-H1395,0.791
23,NCI-H1792,0.6
24,NCI-H1793,1.13
25,NCI-H1563,0.795
26,NCI-H1944,0.681
27,NCI-H358,0.185

# Same assay, conditions: first compound 0.025 µM
row,Cell Line,relative viability
1,NCI-H522,0.98
2,NCI-H1650,0.367
3,NCI-H1993,0.609
4,SW 1573,0.773
5,NCI-H838,0.236
6,LCLC-103H,0.444
7,NCI-H520,0.468
8,NCI-H2126,0.63
9,EMC-BAC-2,0.415
10,NCI-H2085,0.73
11,HCC-366,0.133
12,NCI-H1666,0.857
13,NCI-H596,0.484
14,LK-2,0.245
15,NCI-H2087,0.629
16,NCI-H2342,0.719
17,SK-MES-1,0.857
18,NCI-H2170,0.252
19,HCC-44,0.675
20,SW 900,0.489
21,NCI-H1648,0.61
22,NCI-H1395,0.827
23,NCI-H1792,0.768
24,NCI-H1793,0.883
25,NCI-H1563,0.686
26,NCI-H1944,0.609
27,NCI-H358,0.159

# Same assay, conditions: first compound 0.07906 µM
row,Cell Line,relative viability
1,NCI-H522,0.54
2,NCI-H1650,0.369
3,NCI-H1993,0.607
4,SW 1573,0.853
5,NCI-H838,0.243
6,LCLC-103H,0.459
7,NCI-H520,0.526
8,NCI-H2126,0.6
9,EMC-BAC-2,0.44
10,NCI-H2085,0.987
11,HCC-366,0.172
12,NCI-H1666,0.906
13,NCI-H596,0.481
14,LK-2,0.3
15,NCI-H2087,0.587
16,NCI-H2342,0.72
17,SK-MES-1,0.967
18,NCI-H2170,0.248
19,HCC-44,0.599
20,SW 900,0.529
21,NCI-H1648,0.502
22,NCI-H1395,0.796
23,NCI-H1792,0.644
24,NCI-H1793,0.825
25,NCI-H1563,0.742
26,NCI-H1944,0.594
27,NCI-H358,0.157

# Same assay, conditions: first compound 0.25 µM
row,Cell Line,relative viability
1,NCI-H522,0.643
2,NCI-H1650,0.321
3,NCI-H1993,0.639
4,SW 1573,0.981
5,NCI-H838,0.224
6,LCLC-103H,0.505
7,NCI-H520,0.504
8,NCI-H2126,0.739
9,EMC-BAC-2,0.454
10,NCI-H2085,0.476
11,HCC-366,0.181
12,NCI-H1666,0.866
13,NCI-H596,0.488
14,LK-2,0.257
15,NCI-H2087,0.695
16,NCI-H2342,0.65
17,SK-MES-1,0.988
